Structures are written as SMILES.

These results are taken from patent US20110053954A1, “METHOD OF TREATMENT AND/OR PREVENTION OF BRAIN, SPINAL OR NERVE INJURY” (priority 2001, published 2011).

What all share (assay type): in vivo, rat
The subject of assay [1] is Male Sprague Dawley rats. Put plainly: Rotarod motor outcome after traumatic brain injury (impact acceleration model). To be noted: i.v. at 30 minutes after injury, NK-1 antagonist 10 mg/kg, MK801 0.3 mg/kg, compared with saline vehicle, 24 h to 10 days post-injury. How it is done:
(§1) Male Sprague Dawley rats (400±25 g) were pre-trained on both the Rotarod and Barnes maze so as to assess the effects of the compound on post-traumatic motor and cognitive outcome, respectively. After one week of training, rats were severely injured using the impact acceleration model of traumatic brain injury (2 meters) and administered either of the NK-1 receptor antagonist N-(3,5-bis-trifluoromethylbenzyl)-N-methyl-6-(4-methyl-piperazin-1-yl)-4-o-tolyl-nicotinamide (10 mg/kg i.v., based on active, free base), the NMDA (N-methyl-D-aspartate) antagonist MK801 ((+)-10,11-dihydro-5-methyl-5H-dibenzo[a,d]cyclo-hepten-5,10-diyldiammonium maleate; Dizocilpine maleate; 0.3 mg/kg i.v., based on active, free base) or 0.9% saline vehicle (n=10/group) at 30 minutes after injury.
Over the next 9 days, there was a gradual improvement in motor performance, however the deficit was always significant compared to pre-injury.

For assay [2], the system named is Male Sprague Dawley rats. Put plainly: Exploratory behavior and self-grooming (post-traumatic depression) after brain injury. Particulars: brain injured rats, compared with non-injured animals.
For assay [3], the system named is Male Sprague Dawley rats. Put plainly: Evans Blue extravasation as marker of blood brain barrier permeability after traumatic brain injury. Particulars: Evans Blue i.v. at 4.5 h after injury, circulating 30 mins, saline standardized to 100%. How it is done:
Edema formation in the immediate post-traumatic period is thought to be vasogenic in origin, where increased permeability of the blood brain barrier permits protein extravasation and water accumulation in the brain interstitium. We used Evans Blue extravasation as a marker of blood brain permeability after traumatic brain injury and treatment with the NK-1 receptor antagonist N-(3,5-bis-trifluoromethyl-benzyl)-N-methyl-6-(4-methyl-piperazin-1-yl)-4-o-tolyl-nicotinamide.
At 4.5 h after induction of brain injury, animals were administered i.v. Evans Blue which was allowed to circulate for 30 mins. At that time point, animals were sacrificed and their brains removed for analysis of Evans Blue penetration. The amount of Evans Blue accumulation in the brains of saline treated animals was standardized to 100%. […] As anticipated, uninjured (sham) animals had no significant Evans Blue accumulation in brain tissue.

Assay [4] concerns Male Sprague Dawley rats. Put plainly: Respiratory pattern and weaning off the ventilator after brain injury. Particulars: brain injured rats. As to the method:
as §1
This stability in respiration is thought to be due to both central effects on respiration and by the NK-1 receptor antagonist administered in the method of treatment of the present invention reducing pulmonary edema formation in brain injured animals.

For assay [5], the system named is Male Sprague Dawley rats. Put plainly: Mortality after severe traumatic brain injury. Particulars: i.v. at 30 minutes after injury, saline 30%. How it is done:
as §1
Mortality in rats in this severe model of injury is normally between 20 and 30%. In the saline treated animals, mortality was indeed 30%. […] This high mortality was consistent with this injury level being severe as confirmed by post mortem gross histological analysis of all brains.

In assay [6] the test system is Male Sprague Dawley rats. Put plainly: Barnes maze cognitive outcome after traumatic brain injury. To be noted: i.v. at 30 minutes after injury. As to the method: as §1
Prior to injury, rats were trained to locate an escape tunnel (from aversive sound and light) within 20 sec. This time factor depends on the ability of the animal to learn and remember the location of the escape tunnel.

For the molecule `Cc1ccccc1-c1cc(N2CCN(C)CC2)ncc1C(=O)N(C)Cc1cc(C(F)(F)F)cc(C(F)(F)F)c1` [N-(3,5-bis-trifluoromethyl-benzyl)-N-methyl-6-(4-methyl-piperazin-1-yl)-4-o-tolyl-nicotinamide], in the assay with Male Sprague Dawley rats [1], the “motor outcome (Rotarod Motor Score) after brain injury” value is listed as “significantly better motor outcome”. For the same molecule, in the assay with Male Sprague Dawley rats [2], the “exploratory behavior and self-grooming” value is “not significantly different from non-injured animals”. In the assay with Male Sprague Dawley rats [3], the “Evans Blue accumulation in brain relative to saline treated animals” value is given as 18%. The “weaning off of the ventilator” value with Male Sprague Dawley rats [4] (compared with any other treatment group) is on record as “far more quickly”. The respiratory pattern entry with Male Sprague Dawley rats [4] (compared with saline and MK801 treated counterparts) is given as “more stable respiratory pattern”. In the assay with Male Sprague Dawley rats [5], this molecule displayed a mortality of 0%. The “latency to escape the aversive stimuli (Barnes Cognitive Score)” value in the assay with Male Sprague Dawley rats [6] (at 24 h / at any time point after injury, pre-injury within 20 sec) is listed as “did not demonstrate an increased latency”. In addition, in the assay on Male Sprague Dawley rats [6] (days 2-10 post-injury), the “latency to escape the aversive stimuli, course over the ensuing 9 days” value is “improved with each assessment”.
